From patent US20160136284A1, “GLIOMA TREATMENT” (priority 2012, published 2016)

Assay: Coinfusion of carboplatin and gadolinium-DTPA into pig corona radiata (T1 MRI, LA-ICP-MS)
Format: in vivo
Conditions: carboplatin 0.03 mg/ml coinfused with 0.3% gadolinium-DTPA, CED
Procedure: Carboplatin infusions were undertaken into male Large White Landrace pigs weighing 45 kg using a cannula system developed in-house. Pig anaesthesia, head immobilisation and brain imaging were achieved as we have previously described White et al (2010). Infusions of 120 μl 0.03 mg/ml carboplatin mixed with 0.3% (6 μmol/l) Gadolinium-DTPA (Magnevist: Bayer Healthcare, Germany), were undertaken bilaterally into the corona radiata using a cannula composed of a length of fused silica (outer diameter 220 μm, inner diameter 150 μm) bonded to a glass Hamilton syringe. Except for the distal 3 mm, this fused silica tube was supported along its length by a series of zirconia tubes to ensure that it could be accurately inserted to target. Infusions were performed using the following regime: 0.5 μl/min for 5 min, 1 μl/min for 5 min, 2.5 μl/min for 5 min and then 5 μl/min for 20 min. This regime was employed in an attempt to minimise the occurrence of a sudden surge in pressure at the catheter tip due to elasticity in the infusion tubing. 120 μl was infused as this is the largest volume that we have previously infused into pig white matter without leakage into the ventricular system. Following infusion completion, the cannula was left in place for 10 min prior to being withdrawn slowly by hand. CSF leakage from the burr hole and cannula track was sealed with Cerebond prior to wound closure. […]

Substance: Gadolinium-DTPA
- distribution in pig corona radiata (LA-ICP-MS): distributed over a larger volume of brain than carboplatin
